Results on two compounds are retold here after patent US11402382B2, “Diagnostic and therapeutic methods for cancer” (Genentech, Inc., priority 2017, dated 2022).

In this assay the test system is previously untreated metastatic renal cell carcinoma (mRCC). The experiment in a line: IMmotion150 phase 2 randomized trial: efficacy (PFS, ORR per RECIST v1.1, IRF). It counts as in vivo, human. Conditions: IRF-assessed. The method, then: A phase II clinical study, IMmotion150 (NCT01984242), was performed to evaluate the safety and tolerability of atezolizumab, alone or in combination with bevacizumab, as compared to sunitinib in patients with previously untreated metastatic renal cell carcinoma (mRCC). Integrated tumor genomic analyses were also performed to correlate molecular biomarkers with observed clinical outcomes in the phase II study.
The primary objective of this phase 2 trial was to evaluate the efficacy of atezolizumab+bevacizumab and atezolizumab monotherapy compared with sunitinib.
The original primary endpoint was PFS per Response Evaluation Criteria In Solid Tumors version 1.1 (RECIST v1.1) via IRF in the ITT population. Although patients were stratified by ≥5% PD-L1 expression on IC, the definition of PD-L1 positivity was revised from ≥5% to ≥1% PD-L1 expression on IC, based on phase 1a data, and the study protocol was amended to create PD-L1 expression on IC as a coprimary endpoint of IRF-assessed PFS. […] Secondary endpoints included investigator (INV)-assessed PFS, ORR, and duration of response (DOR) per RECIST v1.1, overall survival (OS), patient-reported outcomes, and safety. Key exploratory objectives included evaluation of the relationship between the expression of predictive and prognostic exploratory biomarkers and their association with disease status and efficacy as defined by ORR and PFS.
During the study, each cycle was six weeks (42 days) in duration, and data on tumor measurement and survival status were collected for evaluation of PFS, milestone PFS (at 24, 52, and 76 weeks), OS, and ORR per RECIST v1.1. Tumor assessments occurred at baseline and every 12 weeks ±five business days after Cycle 1, Day 1, or more frequently if clinically indicated. Patients who discontinued first-line treatment or crossover treatment were followed up for survival approximately every three months until death, withdrawal of consent, loss to follow-up, or study termination. Patients who discontinued study treatment for reasons other than disease progression (e.g., toxicity) continued to undergo scheduled tumor assessments (every 12 weeks) until death, disease progression per RECIST v1.1, withdrawal of consent, or study termination, whichever occurred first.
Kaplan-Meier methodology was used to estimate the median PFS for each treatment arm, and Kaplan-Meier curves were produced. The primary analysis was triggered when 140 INV-PFS events occurred among patients treated with atezolizumab+bevacizumab and with sunitinib or among patients treated with atezolizumab alone and with sunitinib, whichever occurred later. The HR estimates and their 95% CIs were determined by using the stratified Cox proportional hazards model. The stratification factors included prior nephrectomy, tumor PD-L1 status, and MSKCC score and were determined based on data from the electronic case report form; if such data were missing, data collected by the IxRS at the time of randomization were used. Tumor specimens were prospectively tested for PD-L1 expression on ICs by a central laboratory using the SP142 IHC assay (VENTANA, Tucson, Ariz.). IC staining was defined as follows: any discernible PD-L1 staining of any intensity in IC covering <1% or absent (ICO), between ≥1% and <5% (IC1), between ≥5% and <10% (IC2), or ≥10% (IC3) of tumor area occupied by tumor cells, associated intratumoral, and contiguous peri-tumoral desmoplastic stroma.

Where [1] appears, read: PD-L1+ population (≥1% PD-L1 expression on IC).

With `CCN(CC)CCNC(=O)c1c(C)[nH]c(/C=C2\C(=O)Nc3ccc(F)cc32)c1C` [Sunitinib, N-[2-(Diethylamino)ethyl]-5-[(Z)-(5-fluoro-2-oxo-1,2-dihydro-3H-indol-3-ylidene)methyl]-2,4-dimethyl-1H-pyrrole-3-carboxamide], under “ITT population”, the “complete response (CR)” value is 5%, the “median progression-free survival (PFS)” value was 8.4 months, the “objective response rate (ORR)” value is recorded as 29% and the “partial response (PR)” value turned out to be 24%. Moreover, for the setting “PD-L1+ patients”, the “complete response (CR)” value turned out to be 7%, the “objective response rate (ORR)” value was determined as 27% and the “partial response (PR)” value is recorded as 20%. Besides, the “median progression-free survival (PFS)” value under setting [1] is 7.8 months.

Take “Atezo: anti-PD-L1 antibody atezolizumab (CAS Registry Number: 1422185-06-5), Genentech, also known as MPDL3280A”: for the setting “ITT population”, the “Stratified PFS HR (95% CI) vs sunitinib” value was determined as 1.19, the “complete response (CR)” value turned out to be 11%, the “median progression-free survival (PFS)” value is reported as 6.1 months and the “objective response rate (ORR)” value is recorded as 25%. In addition, the “partial response (PR)” value (ITT population) was determined as 14%. Besides, the “Stratified PFS HR (95% CI) vs sunitinib” value (PD-L1+ (PD-L1 IHC IC1/2/3, ≥1%)) turned out to be 1.03. For the setting “PD-L1+ patients”, the “complete response (CR)” value was 15%, the “objective response rate (ORR)” value is recorded as 28% and the “partial response (PR)” value came out at 13%. Besides, the “median progression-free survival (PFS)” value under setting [1] is on record as 5.5 months. In addition, the “Stratified PFS HR (95% CI) vs sunitinib” value (PD-L1 IHC IC2/3 (≥5%)) is given as 0.64.
